“Also recorded” adds a separate entry of the source. One block for each compound: values may come before it.
How the values were obtained:
DNMT2-tRNA complex = target: T1, DNMT2-tRNA complex (Homo sapiens, UniProt O14717); experiment: Electrophoretic mobility shift assay (EMSA) of the DNMT2-tRNA complex; assay type: binding; conditions: 500 µM compound, DNMT2 10 µM, tRNAAsp 5 µM
T1 construct: made in house
T1 sequence (O14717 1-391): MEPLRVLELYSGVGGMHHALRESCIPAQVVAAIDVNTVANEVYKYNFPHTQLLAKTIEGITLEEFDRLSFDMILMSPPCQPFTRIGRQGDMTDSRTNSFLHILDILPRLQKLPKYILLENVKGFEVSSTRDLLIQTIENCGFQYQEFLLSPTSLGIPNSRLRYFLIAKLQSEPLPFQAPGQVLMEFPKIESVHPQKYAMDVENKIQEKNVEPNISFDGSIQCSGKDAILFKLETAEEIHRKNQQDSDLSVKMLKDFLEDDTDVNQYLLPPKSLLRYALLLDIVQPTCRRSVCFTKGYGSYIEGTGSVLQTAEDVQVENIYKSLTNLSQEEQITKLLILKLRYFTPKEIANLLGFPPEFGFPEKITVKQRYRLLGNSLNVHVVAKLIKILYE
Procedure: We speculated these hits might bind very weakly to the tRNA-DNMT2 interaction site and by this inhibit DNMT2 activity. To test this hypothesis, we performed an electrophoretic mobility shift assay (EMSA) using tRNA^Asp (5 µM) and DNMT2 (10 µM) compared to the tRNA sample in absence of the DNMT2 protein (SI Fig. 4)[33]. […] Subsequently, we treated the DNMT2-tRNA complex with all hit compounds at 500 µM and observed their potential to disrupt the complex.
DNMT2 (10 µM) was mixed with tRNA^Asp (5 µM) and treated with 500 µM of the respective screening hit compound in DNMT2 assay buffer (100 mM Tris-HCl, pH 8, 100 mM NH4OAc, 0.1 mM EDTA, 10 mM MgCl2, 10 mM DTT). Subsequently, reaction samples (each 5 µL) were loaded to a native 10% polyacrylamide gel and separated electrophoretically (1 h, 180 V) in 1x TBE. RNA was stained in situ with 1x GelRed and PAGE analysis was conducted by fluorescence scanning at an excitation wavelength of 532 nm (Amersham Typhoon 9400). Positive control: DNMT2+tRNA (band at high molecular weights); negative control: only tRNA (band at low molecular weights).
SI Figure 4. Electrophore?c mobility shi? assay (EMSA) to inves?gate the inﬂuence of screening hits on the DNMT2-tRNA complex forma?on. D NMT2 (10 µ M ) was mixe d w it h t RNAAsp (5 µM) and treated with 50 0 µM of the respec?ve screening hit compound in DNMT2 assay buﬀer. All reac?on samples (each 5 µL) were loaded to a na?ve 10% polyacr ylamide gel and separated electrophore?cally (1 h, 1 80 V) in 1x TBE. RNA was stained in situ with 1x GelRed and PAGE analysis was conducted by ﬂuorescence scanning at an excita?on wavelength of 532 nm (Amersham Typhoon 9400). Po s i ? ve control: DNMT2+tRNA (band at high molecular weights); nega?ve control: only tRNA (band at low

DNMT2 [1] = target: T2, DNMT2 (Homo sapiens, UniProt O14717); experiment: DNMT2 fluorescence polarization (FP) FTAD displacement assay; assay type: binding
T2 construct: made in house
T2 sequence (O14717 1-391): T1 sequence (O14717 1-391)
Procedure: Fluorescence polarization assays were conducted with a similar sample composition as described for FTAD-MST assays as described previously. Triplicates (50 µL) were prepared in black 96-well half-area plates (Greiner) and measured using a Spark 10 M plate reader (Tecan) equipped with polarization filters coupled to a monochromator setup (FTAD: λex = 480 nm, λem = 530 nm). Polarization values (in mP) were calculated from polarization-specific parallel and orthogonal fluorescence intensities according to the Tecan in-built calculation routine.
Reversibility of alexidine binding to DNMT2 was evaluated with a modified FP-assay setup. Briefly, reaction mixtures containing alexidine were prepared in black 96-well half-area plates, and after FP measurement, the volume of one well (50 µL) was collected and applied to a Zeba™ Spin Desalting Column (7 K MWCO) while 5 µL of a 10x DNMT2 buffer solution (500 mM HEPES, 1.5 M NaCl, 10 mM dithiothreitol (DTT), 1% PEG-8000, 0.5% polysorbate-20, pH 7.4) was placed in the collection tube attached to the SEC column. This procedure separated alexidine and restored the initial composition of the DNMT2 assay solution.
Kinetic FP assays were performed to assess the time-dependent inactivation of DNMT2 treated with covalent inhibitors. Briefly, samples contained 2 µM DNMT2, 100 nM FTAD probe, and 1.3% DMSO in DNMT2 MST buffer. Inhibitors were added from DMSO stocks. Negative inhibition control was performed by mock treatment with DMSO. Reactions were initiated by the addition of the Cpd 11 (adamantanyl-acryloylurea) and monitored for 120 min at 25 °C in a Tecan Spark 10 M plate reader (FTAD: λex = 480 nm, λem = 530 nm) The irreversible inhibition kinetics were analyzed as described previously[35],[36].

DNMT2 [2] = target: T2, DNMT2; experiment: DNMT2 enzymatic split aptamer MST assay; assay type: biochemical; conditions: for IC50: MST-derived, 250 nM DNMT2, 5 µM tRNA, 0.9 µM SAM
Procedure: The enzyme kinetics were characterized by calculating the Michaelis-Menten constant (KM or kcat) and inhibitory constants (IC50 resp. KI).
The final drug compound concentration was adjusted to 500 µM for the epigenetic drug library (Fig. 5) resp. 100 µM for the covalent compound library (Fig. 6), and the enzymatic reaction was incubated for 30 min at 25 °C. Subsequently, enzymatic reactions were terminated by the addition of 0.3% SDS, and the product SAH was quantified by the split aptamer MST assay (Figs. 5A, B, 6A).

[3] = tested on: aptaSAH1&2 SAH split aptamer; experiment: Split aptamer (aptaSAH1&2) MST ligand titration; assay type: binding, D. aromatica
Procedure: To establish our experimental setup, we mixed both aptamer fragment oligonucleotides at equimolar concentrations (final: 50 nM) and titrated series of SAH resp. SAM dilutions to this prototypical SAH biosensor. […] Furthermore, MST assays require only 10 µL of sample volume per capillary compared to 30 µL per well in a 96-well plate supporting high-throughput applications in material consumption.
To evaluate the effect of inhibitors on DNMT2 activity, we used two known inhibitors, SHO108 and SH112. These SAH derivatives were selected based on their documented efficacy for DNMT2[8],[26].
For MTase assay detection by MST, enzyme reaction mixtures with a total volume of 10 µL per single treatment condition were prepared and incubated for the desired reaction times. Inhibitors were added from corresponding DMSO stocks to a final DMSO concentration of max. 5%. Afterward, reactions were quenched at a given reaction time by the addition of 1 µL sodium dodecyl sulfate (SDS, solution, 3% in water) per 10 µL reaction mixture and mixed well by pipetting. Subsequently, 1 µL of a 10× aptamer-containing detection master mix (200 mM Tris, pH 8.5, 200 mM MgCl2, 3 M NaCl, 10 mM urea, 0.2% Brij, 500 nM aptaSAH1, 500 nM aptaSAH2) was added to the quenched MTase reaction and incubated for 1 h at room temperature. Reaction mixtures were loaded directly to MST capillaries without further purification or sample processing.
MST experiments were carried out in at least technical triplicates using a Monolith NT.115 instrument (NanoTemper Technologies) using Monolith standard capillaries and the blue excitation laser setup. The instrument was calibrated according to the manufacturer’s instructions. General settings were applied for all MST experiments as follows: manual temperature control: 25 °C, fluorescence measurement before MST: 4 s, MST (IR laser) on: 20 s, fluorescence after MST: 2 s, delay: 25 s. The laser power was adjusted to optimize the signal-to-noise ratio and the fluorescence signal. LED and MST power settings were chosen individually for each sample by adjusting the LED power to yield fluorescence signals of at least 300 units (blue laser) or 3000 units (red laser) and the MST power to achieve an appropriate thermophoretic response (standard setting: medium MST power). MST measurements were analyzed using the NT analysis software (version 1.5.41) and exported for statistical analysis and plotting in GraphPad Prism 7.01.

DNMT2 [4] = target: T2, DNMT2; experiment: DNMT2 radiometric 3H incorporation assay; assay type: biochemical
Procedure: (§1) To further validate our findings on DNMT2, we compared the split aptamer inhibition assay results of both inhibitors with those obtained from a previously published orthogonal assay method, the radiometric ^3H incorporation assay[8],[26]. […] Using an additional non-enzymatic MTase assay technique, we also investigated the two DNMT2 inhibitors utilizing an orthogonal MST method based on a fluorescent tracer displacement assay (SI Fig. 1)[27],[28].
Radiometric DNMT2 assays were carried out as described previously. HTRF MTase assays with the commercial AptaFluor SAH assay kit (BellBrook Labs) were performed as described in the manufacturer’s manual in 96-well format.

DNMT2 [5] = target: T2, DNMT2; experiment: Fluorescent tracer displacement assay (FTAD-MST assay); assay type: binding
Excerpt: as §1
Fluorescent tracer displacement MST assays for orthogonal ligand evaluation were conducted as described previously. The samples contained 2 µM DNMT2, 100 nM FTAD probe, and 1.3% DMSO in MST buffer (50 mM HEPES, 150 mM NaCl, 1 mM dithiothreitol (DTT), 0.1% PEG-8000, 0.05% polysorbate-20, pH 7.4) supplemented with variable concentrations of the screening compounds. All samples were measured in triplicates in Monolith standard capillaries at 25 °C. The acquisition mode was set to “Nano-Blue” with an excitation power of 30% and a medium MST power. MST measurements were analyzed using the NT analysis software (version 1.5.41) and exported for statistical analysis and plotting in GraphPad Prism 7.01.

[6] = inhibitor titrated up to 100 µM without enzyme or RNA substrate, compared to the SAH-positive control

Structure (SMILES): c1cc(-c2cnn3cc(-c4ccc(OCCN5CCCCC5)cc4)cnc23)ccn1 [Cpd 1]
- influence on DNMT2-tRNA complex formation (DNMT2-tRNA complex): showed the potential to reverse the complex formation

Structure (SMILES): COc1cc2nc(N3CCCN(C)CC3)nc(NC3CCN(Cc4ccccc4)CC3)c2cc1OC [Cpd 2]
- influence on DNMT2-tRNA complex formation (DNMT2-tRNA complex): showed the potential to reverse the complex formation

- fluorescence polarization in the presence of compound (DNMT2 [1]; DNMT2-FTAD complex alone 96 mP): 5 mP
- Kd (DNMT2 [1]; DNMT2 FP assay, FTAD tracer): 364 µM
- reversibility of binding (DNMT2 [1]; FP displacement with SEC separation): fully reversible binder
- fluorescence polarization restored after size-exclusion chromatography (DNMT2 [1]; after SEC removal of compound): 92 mP
- fluorescence polarization after second treatment (DNMT2 [1]; second treatment after SEC): 4 mP
- DNMT2 inhibition at concentrations <500 µM (DNMT2 [2]; enzymatic aptamer assay): showed inhibition
Structure (SMILES): CCCCC(CC)CNC(=N)NC(=N)NCCCCCCNC(=N)NC(=N)NCC(CC)CCCC (centres unmarked) [Cpd 3, alexidine]
- displacement of FTAD tracer / binding to SAH-binding site (DNMT2 [1]; FP library screening with FTAD tracer): binding to the SAH-binding site; also recorded: able to compete with the fluorescent SAH-analog
- influence on DNMT2-tRNA complex formation (DNMT2-tRNA complex): do not inﬂuence the complex; also recorded: did not influence DNMT2-tRNA complex formation

Structure (SMILES): CC(=O)c1cc([N+](=O)[O-])c(Sc2ccc(F)cc2F)s1 [Cpd 4]
- influence on DNMT2-tRNA complex formation (DNMT2-tRNA complex): do not inﬂuence the complex; also recorded: unable to disrupt the protein-tRNA complex

Structure (SMILES): Cc1ncc(Cl)cc1NCc1ccc(C(=O)N[C@@H](CC2CCCC2)C(=O)NC2CC2)s1 [Cpd 5]
- influence on DNMT2-tRNA complex formation (DNMT2-tRNA complex): showed the potential to reverse the complex formation

Structure (SMILES): COc1ccn2ncc(-c3nc4[nH]nc(NC(=O)c5ccc(F)cc5)c4cc3F)c2c1 [Cpd 6]
- influence on DNMT2-tRNA complex formation (DNMT2-tRNA complex): showed the potential to reverse the complex formation

Structure (SMILES): Cc1cc(Nc2cc(Cl)nc(Oc3ccc([N+](=O)[O-])cc3)n2)n[nH]1 [Cpd 7]
- influence on DNMT2-tRNA complex formation (DNMT2-tRNA complex): do not inﬂuence the complex; also recorded: unable to disrupt the protein-tRNA complex

Structure (SMILES): N[C@H](CNc1nc(-c2ccncc2)nc2sc3c(c12)CCCC3)Cc1ccccc1 [Cpd 8]
- influence on DNMT2-tRNA complex formation (DNMT2-tRNA complex): showed the potential to reverse the complex formation

Structure (SMILES): CNC(=O)Nc1ccc2c(c1)CCC21OC(=O)N(CC(=O)N(Cc2ccc(F)cc2)C(C)C(F)(F)F)C1=O (centres unmarked) [Cpd 9]
- influence on DNMT2-tRNA complex formation (DNMT2-tRNA complex): showed the potential to reverse the complex formation

Structure (SMILES): Cc1ccc(C(=O)COC(=O)c2cccc(NC(=O)c3ccc([N+](=O)[O-])cc3[N+](=O)[O-])c2)cc1 [Cpd 10]
- influence on DNMT2-tRNA complex formation (DNMT2-tRNA complex): do not inﬂuence the complex; also recorded: unable to disrupt the protein-tRNA complex

Structure (SMILES): Nc1ncnc2c1ncn2[C@@H]1O[C@H](CN(CC[C@H](N)C(=O)O)Cc2ccc(Cl)c(C(F)(F)F)c2)[C@@H](O)[C@H]1O [SH112, (S)-2-amino-4-((((2 R,3S,4 R,5 R)-5-(6-amino-9H-purin-9-yl)-3,4-dihydroxytetrahydrofuran-2-yl)methyl)(4-chloro-3-(trifluoromethyl)benzyl)amino)butanoic acid]
- binding to split aptamer (MST shift) [3, 6]: not binding to the aptamer at relevant concentrations; also recorded: only minimal MST shifts
- IC50 (DNMT2 [4]): 15.6 ± 3.9 µM
- IC50 (DNMT2 [2]): 9.3 ± 1.7 µM
- Kd (DNMT2 [5]): 7.8 µM

- IC50 (DNMT2 [4]; orthogonal 3H-incorporation assay, read-out: IC50): 9.3 ± 1.8 µM
- IC50 (DNMT2 [2]): 7.9 ± 1.8 µM
- Kd (DNMT2 [5]; MST FTAD tracer displacement, 2 µM DNMT2, 100 nM FTAD, read-out: KD): 4.7 µM
Structure (SMILES): C#CCN(CC[C@H](N)C(=O)O)C[C@H]1O[C@@H](n2cnc3c(N)ncnc32)[C@H](O)[C@@H]1O [SHO108, (S)-2-amino-4-((((2 R,3S,4 R,5 R)-5-(6-amino-9H-purin-9-yl)-3,4-dihydroxytetrahydrofuran-2-yl)methyl)(prop-2-yn-1-yl)amino)butanoic acid]
- binding to split aptamer (MST shift) [3, 6]: not binding to the aptamer at relevant concentrations; also recorded: only minimal MST shifts

- binding to split aptamer (MST shift) ([3]; SAH analogs at 10 µM, aptaSAH1&2 both 50 nM): slight MST shift
Structure (SMILES): Nc1ncnc2c1ncn2[C@@H]1O[C@H](C[C@@H](N)CC[C@H](N)C(=O)O)[C@@H](O)[C@H]1O [sinefungin]

Source: paper PMC11790956, “A microscale thermophoresis-based enzymatic RNA methyltransferase assay enables the discovery of DNMT2 inhibitors” (Communications Chemistry, 2025)
